Results as given in patent US20060035940A1, “(S)-Amlodipine malate” (Sepracor Inc., priority 2004, published 2006).
Where a name gives a salt, the structure may show the parent alone. Read-outs that look alike come from different tables or passages of the source. Blank lines part the entries; values can stand above or below the compound they belong to.

What was measured:
[1] = Adhesion studies (tablet punch surfaces, blends with Avicel PH 101); type: physicochemical
Description: Avicel PH 101 and each (S)-amlodipine salt were pre-screened through a 25-mesh sieve to delump the powders prior to blending. […] Approximately 500 mg was weighed into the ½-inch tablet die, a tablet punch was added and 0.2 metric tons of pressure was applied using a Carver press for 2-3 seconds. The tablet was then removed, and the surfaces of the tablet punches (concave, SRC) were washed with mobile phase (1 mL). The wash was then assayed by HPLC. Three measurements were made for each blend.

[2] = Moisture balance (VTI SGA-100 sorption isotherm); type: physicochemical; conditions: equilibrated at 95% RH (sorption range 5% to 95% RH)
Description: Moisture-sorption data were collected on a VTI SGA-100 moisture balance system. […] The sample was not dried prior to analysis. Equilibrium criteria used for analysis were less than 0.0100 weight-percent change in 5 minutes with a maximum equilibration time of 3 hours if the weight criterion was not met. The data were not corrected for the initial moisture content of the sample.

Solid state stability = type: physicochemical; conditions: 60° C./75% RH
Description: Individual samples were prepared and stored at 25° C./60% RH and 40° C./75% RH. Samples stored at 60° C./75% RH were packaged in uncapped glass vials. All samples were analyzed for assay and impurity by HPLC.

[3] = type: physicochemical; conditions: for pH of saturated solution: DI H2O, ambient temperature
Description: The solution was sampled periodically, filtered using a 0.2 μm PTFE syringe filter and assayed by HPLC.
The sample was filtered through a 0.2 μm filter and assayed by HPLC.

[4] = TGA, water content and moisture sorption profiles; type: physicochemical
Description: Moisture Sorption Isotherms: Moisture sorption isotherms were generated using VTI SGA-100 symmetric vapor sorption analyzer. Samples were not pre-dried. Equilibrium criteria were the lesser of 0.01 wt % change in 5 minutes or 180 minutes at each RH step. Temperature was fixed at 25° C. and the relative humidity steps (25% to 95% to 25%) were in 5% increments. In FIG. 27, adsorption data is shown as a solid line with desorption data connected by a dashed line. Water Content: Water content was determined by coulometric titration using an EM Science Aquastar® C300 Karl Fischer titrator. TGA: Samples were analyzed using Perkin Elmer TGA 7 thermal gravimetric analyzer at a heating rate of 10° C./min.

[5] = Hygroscopicity and desolvation studies of crystal forms (XRPD); type: physicochemical; conditions: 31, 75, 84 and 95% relative humidity, approximately one week
Description: Hygroscopicity studies were performed by placing portions of a select form in a 11, 32, 45, 66, 75, 84% or 95% relative humidity (RH) chamber for approximately one to three weeks. Desolvation studies were carried out by heating each form in an 80° C. oven for approximately one week. Interconversion experiments were carried out by making slurries containing two forms in a saturated solvent. The slurries were agitated for approximately seven days at ambient temperature. The insoluble solids were recovered by filtration and analyzed using XRPD.

[6] = 5% (S)-Amlodipine salt in Avicel
[7] = 25% (S)-Amlodipine salt in Avicel

Compound: O=C(O)[C@H](O)[C@@H](O)C(=O)O [(L)-Tartrate]
- Adhesion [1, 6]: 9.3E−07 g (S)-amlodipine/cm^2
- Adhesion [1, 7]: 4.9E−06 g (S)-amlodipine/cm^2

Compound: CCOC(=O)C1=C(COCCN)NC(C)=C(C(=O)OC)[C@@H]1c1ccccc1Cl.O=C(O)C(O)C(O)C(=O)O [(S)-amlodipine D-tartrate]
- Adhesion [1, 6]: 6.0E−07 g (S)-amlodipine/cm^2
- Adhesion [1, 7]: 2.8E−06 g (S)-amlodipine/cm^2

Compound: CCOC(=O)C1=C(COCCN)NC(C)=C(C(=O)OC)[C@@H]1c1ccccc1Cl [(S)-amlodipine maleate]
- Adhesion [1, 6]: 5.8E−07 g (S)-amlodipine/cm^2
- Adhesion [1, 7]: 3.9E−06 g (S)-amlodipine/cm^2

Compound: CCOC(=O)C1=C(COCCN)NC(C)=C(C(=O)OC)C1c1ccccc1Cl.O=C(O)CC(O)C(=O)O [form D′, (S)-Amlodipine-D-malate]
- increase in weight (moisture balance) [2]: 0.3%

- time for which solid was fairly stable (Solid state stability): > 2 months
- pH of saturated solution ([3]; initial salt screen): 4.0
- pH of saturated solution ([3]; more recent sample): 3.56
- Free Base Concentration (solubility) ([3]; pH 3.56): 6000 µg/mL
- Malate Concentration (solubility) ([3]; pH 3.56): 8000 µg/mL
- Free Base Concentration (solubility) ([3]; pH 4): 10100 µg/mL
- Malate Concentration (solubility) ([3]; pH 4): 13400 µg/mL
- Moisture Desorption ([4]; at 25% RH, 25° C.): 0.06 % wt remaining
- Moisture Adsorption ([4]; at 95% RH, 25° C.): 0.24 % wt gain
- KF water content ([4]; coulometric Karl Fischer): 0.13 % H2O
- TGA ([4]; heating rate 10° C./min): 0.14 % wt loss
- hygroscopicity ([4]; moisture sorption, TGA and Karl Fischer data): not hygroscopic
- Adhesion [1, 6]: 4.9E−07 g (S)-amlodipine/cm^2
- Adhesion [1, 7]: 2.6E−06 g (S)-amlodipine/cm^2
- adhesion to solid dosage form manufacturing equipment compared to other salts ([1]; blended at typical levels with Avicel): decreased adhesion
- increase in weight (moisture balance) [2]: 0.5%
- crystal form after hygroscopicity study [5]: remained unchanged
Compound: (S)-amlodipine L-malate
